How the values were obtained:
[1] = system: rat hypothalamic tissue; conditions: injected intravenously or included in the in vitro incubation of rat hypothalamic tissue; cited from earlier work
[2] = target: T1, Na^+ pump (Homo sapiens, UniProt P05023); test: Inhibition of Na+ pump activity (active Rb+ uptake) in human erythrocytes; format: cell-based; conditions: 1 mM, standard
T1 construct: measuring active ^86Rb^+(K^+ analogue) transport into human erythrocytes; endogenous in cells; host or cells: human erythrocytes
Experimental: After purifying the conditioned medium by reverse-phase column chromatography (Sep-Pak, Waters), the resulting sample was assayed using the ^86Rb uptake assay to determine a change in inhibition as previously described in Carilli et al., J. Biol. Chem., 260:1027-1031 (1985).
PC12 cells are studied for the presence of the genes of interest, then the release of inhibitor from these cells is confirmed using the method of Komiyama (Komiyama et al., J. Hypertens., 19:229-236 (2001)). Collected supernatants are acidified to dissociate OLC from putative carrier proteins, and purified using Sep-Pak C18 cartridges eluted with acetonitrile.

[3] = system: cultured rat myocytes; conditions: cited from earlier work
[4] = system: vascular rings from rat pulmonary artery and aorta; conditions: in vitro; cited from earlier work
[5] = system: PC12 cells; conditions: added to the culture media of PC12 cells; cited from earlier work

CC[C@H](C)[C@@H]1NC(=O)[C@H](CCCNC(=N)N)NC(=O)[C@H](CC(=O)O)NC(=O)[C@H](CCSC)NC(=O)[C@H](CCCNC(=N)N)NC(=O)CNC(=O)CNC(=O)[C@H](Cc2ccccc2)NC(=O)[C@@H](NC(=O)[C@H](CO)NC(=O)[C@H](CO)NC(=O)[C@H](CCCNC(=N)N)NC(=O)[C@H](CCCNC(=N)N)NC(=O)[C@H](CC(C)C)NC(=O)[C@@H](N)CO)CSSC[C@@H](C(=O)N[C@@H](CC(N)=O)C(=O)N[C@@H](CO)C(=O)N[C@@H](Cc2ccccc2)C(=O)N[C@@H](CCCNC(=N)N)C(=O)N[C@@H](Cc2ccc(O)cc2)C(=O)O)NC(=O)CNC(=O)[C@H](CC(C)C)NC(=O)CNC(=O)[C@H](CO)NC(=O)[C@H](CCC(N)=O)NC(=O)[C@H](C)NC(=O)CNC1=O [atrial natriuretic peptide]
release of the Na+,K+-ATPase inhibitor [1]: decreased the release

C[C@@H]1O[C@@H](O[C@H]2C[C@@H](O)[C@]3(CO)[C@H]4[C@H](O)C[C@]5(C)[C@@H](C6=CC(=O)OC6)CC[C@]5(O)[C@@H]4CC[C@]3(O)C2)[C@H](O)[C@H](O)[C@H]1O [ouabain]
inhibition of active Na+ transport [2]: Complete inhibition
toxicity at the same intracellular Ca++ concentration [3]: toxic
effect on isolated vascular rings [4]: unaffected by Oua except at toxic concentrations

CC(=O)[C@H]1CC[C@H]2[C@@H]3CCC4=CC(=O)CC[C@]4(C)[C@H]3CC[C@]12C [progesterone]
amount of OLC release into culture supernatants [5]: augmented in a dose-dependent manner

Reference: patent US20040161794A1 (The General Hospital Corporation, priority 2002, published 2004)
